Here are results for one molecule from patent US20060193844A1, “Methods for enzyme inhibition” (Proteolix, Inc., priority 2005, published 2006).

For data set [1] the following is noted: female rats; daily administration of doses that result in 80% inhibition of the proteasome; cited from earlier work.
The conditions of data set [2]: twice weekly for two weeks (days 1, 4, 8 and 11) followed by a ten-day rest period; cited from earlier work.
The conditions of data set [3]: monkeys, cited from earlier work.
The test system of the next data set is HT-29 cell line. In words: Human xenograft model, tumor volume. The data set is classed as in vivo. To be noted: dose equivalent to the MTD for this strain of mouse, clinical schedule; FIG. 4. The method, then: In a human xenograft model using an HT-29 cell line, proteasome inhibitors were administered using the indicated regimens.
For orientation: In xenograft studies the graft and the host belong to different species.

Each structure is given as a SMILES string.

For `CC(C)C[C@H](NC(=O)[C@H](Cc1ccccc1)NC(=O)c1cnccn1)B(O)O` [bortezomib], in data set [1], the lethality is 67%. Besides, in data set [2], the “maximum tolerated dose (MTD)” value is reported as 1.3 mg/m^2/dose. The “highest daily dose without severe toxicity, fold less than the MTD on the clinical dosing schedule” value in data set [3] was 20 fold. Besides, the “highest dose without severe toxicity” value in data set [3] (daily administered) is on record as 0.5 mg/m^2. Also, the anti-tumor response entry in the data set with HT-29 cell line is given as “unable to induce an anti-tumor response”.
